Assays:
[1] = test system: LPC induced spinal cord demyelination; experiment: LPC induced spinal cord demyelination model; type: in vivo, rat; conditions: oral, daily from Day 3, sacrifice Day 9
circulating cholesterol [2] = experiment: 28-day multiple-dose study in healthy volunteers: circulating cholesterol and serum sterols; type: in vivo, human
Experimental: (§1) Forty-two healthy volunteers received Compound 1 QD for 28 days (or before early withdrawal), with 6 individual participants per cohort receiving 1 mg (Cohort 1), 3 mg (Cohort 2), 10 mg (Cohort 3), 30 mg (Cohort 4), 60 mg loading dose with 10 mg maintenance dosing (Cohort 5) Compound 1, 60 mg (Cohort 6), or 90 mg loading dose on Day 1 and Day 2 with 30 mg maintenance dosing (Cohort 7). There were also 14 participants who received placebo in the study; 1 participant in Cohort 4 was misdosed on Day 19 and appeared to have received at least one 30 mg dose of Compound 1. The following protocol deviations were reported for participants in Cohorts 1 through 5: they received predose water ad lib (not restricted for 1 hour before and 1 hour after dose) and a meal administered 30 minutes postdose (not 4 hours postdose). A total of 49 participants completed treatment, including 37 participants who received active treatment.
(§2) Participants received the first dose of study treatment (Compound 1 or placebo) on Day 1 and continued to receive once-daily study treatment through Day 28. Participants remained in the clinic throughout the dosing period. Participants were discharged on Day 29 after completing all assessments.
Blood was periodically withdrawn from each volunteer and immediately stored at −80° C. For measuring metabolite concentrations in human serum, the samples were centrifuged and the resulting supernatant was used for further analysis.
Free oxysterols were extracted from the samples with methanol using the Biocrates Kit filter plate. The plate was loaded with an internal standard mixture beforehand. The metabolite concentrations were determined by UHPLC-MS/MS with multiple reaction monitoring (MRM) in a positive mode using a SCIEX API 5500 QTRAP® (AB SCIEX, Darmstadt, German) instrument with electrospray ionization (ESI). Data were quantitated using appropriate mass spectrometry software and imported in Biocrates Met/DQ™ software for further analysis.

[3] = test system: cuprizone demyelination in the corpus callosum; experiment: Cuprizone/rapamycin demyelination model; type: in vivo, mouse; conditions: oral gavage daily in the last 2 weeks of cuprizone/rapamycin treatment
Experimental: Nine week-old C57/BL6 mice were fed with chow pellets containing 0.3% cuprizone (Harlan) and injected with rapamycin intraperitoneally for 6 weeks (10 mg/kg, 5 days/week). Animals were treated with Compound 1 by oral gavage daily in the last 2 weeks of cuprizone/rapamycin treatment. Animals were sacrificed at the end of the last treatment and brains were dissected to determine the effect of Compound 1 on remyelination in the corpus callosum (white matter) and cerebral cortex regions. Coronal slices (septostriatal section, 1 mm thickness) through the corpus callosum were cut, then cut on the midsagittal plane and embedded in epon, oriented to visualize the entire cross-section of the midsagittal corpus callosum. Myelinated axons in the corpus callosum lesions were quantified by toluidine blue staining. ** p<0.01, *** p<0.001. […] Error bars denote the standard error of the mean. N=39 for the study.

[4] = test system: human OPC-rat DRG co-culture; experiment: Human OPC-rat DRG co-culture myelination (MBP ICC); type: cell-based; conditions: 0.02, 0.2, or 2 μM vs DMSO control
Experimental: Embryonic dorsal root ganglia (DRG), dissected from embryonic day 14 (E14) to day 17 (E17) Sprague Dawley rats, were plated on poly-L-lysine (100 μg/ml)-coated cover slips for 2 weeks and grown in Neurobasal medium supplemented with B27 (Life Technologies). To remove proliferating glial cells, cultures were pulsed twice with fluorodeoxyuridine (20 μM) from days 2-6 and from days 8 to 10. Then human OPCs, prepared as described above, were added to DRG neuron drop cultures. The culture media for rat OPC-DRG co-culture is Neurobasal medium supplemented with B27 and 100 ng/ml NGF with fresh compounds changed twice per week. The culture media for human OPC-rat DRG co-culture is the proliferation media for human OPCs without purmorphamine and FGF/PDGF. Compound 1 (0.02, 0.2, or 2 μM) or DMSO control treatment started 1 day after OPCs were added to DRG culture. To visualize myelination, cultures were fixed by 4% paraformaldehyde (PFA) and labeled with anti-myelin basic protein (MBP) antibodies to identify changes in myelination by ICC.

rat OPCs = experiment: Sterol metabolite levels in rat OPC cultures (Metabolon HD4); type: cell-based; conditions: rat OPC culture
Experimental: Enriched populations of oligodendrocytes from female Sprague Dawley postnatal day 2 (P2) rats were grown in culture. Briefly, the forebrain was dissected and placed in Hank's buffered salt solution (HBSS) (Life technologies). The tissue was cut into 1 mm fragments and incubated at 37° C. for 15 min in 0.01% trypsin and 10 μg/ml DNase. Dissociated cells were plated on poly-D-lysine (PDL)-coated T75 tissue culture flasks and grown at 37° C. for 10 days in Dulbecco's Modified Eagle Medium (DMEM) with 20% fetal calf serum (Life technologies). Oligodendrocyte precursors (A2B5+) were collected by shaking the flask overnight at 200 rpm at 37° C., resulting in a 95% pure population. Cultures were maintained in a defined growth medium (high glucose DMEM, 0.1% BSA, 50 ug/ml Apo-transferrin, 5 ug/ml insulin, 30 nM sodium selenite, 10 nM biotin and hydrocortisone) with 10 ng/ml fibroblast growth factor/platelet-derived growth factor (FGF/PDGF) (Peprotech) for 2-3 days. For assessing the ability of Compound 1 to promote the differentiation of rat A2B5+ progenitor cells into mature myelin basic protein positive (MBP+) myelinating oligodendrocytes, A2B5+ cells were plated into 10-cm PDL coated culture plates in FGF/PDGF free growth medium supplemented with 10 ng/ml CNTF and 15 nM T3 and were immediately treated for with Compound 1. The cell pellets were collected at 24 hours and 72 hours in culture and stored at −80° C. The cell pellets were subsequently shipped to Metabolon (Morrisville, NC, USA) and maintained at −80° C. during shipping and storage until processed. The cell pellet samples were extracted with methanol under vigorous shaking for 2 min (Glen Mills GenoGrinder 2000) to precipitate protein and dissociate small molecules bound to protein or trapped in the precipitated protein matrix, followed by centrifugation to recover chemically diverse metabolites. The resulting extract were next aliquot and analyzed on Metabolon's HD4 platform. Several types of quality control samples, including recovery standards added prior to extraction, technical replicates from a pool combined from each experimental sample, process and solvent blanks, and spiked a cocktail of QC standards, were applied during sample preparation and analysis for quality assessment and filtering failed samples.

[5] = test system: LPC induced corpus callosum demyelination; experiment: LPC induced corpus callosum demyelination model; type: in vivo; conditions: rat LPC corpus callosum model
human iPSC-derived OPCs = experiment: Human iPSC-derived OPC differentiation (MBP+ cells); type: cell-based; conditions: 0.02 and 0.2 μM, 40 days
Experimental: Human induced pluripotent stem cell (iPSC) derived OPCs were maintained in proliferation media, composed of advanced DMEM-F12 supplemented with N2, B27, Glutamax, […] heparin (Sigma), 1 μM purmorphamine (Merck), 20 ng/ml FGF/PDGFa (Peprotech), 10 ng/ml IGF (Peprotech), and 60 ng/ml T3 (Sigma). To allow OPC differentiation, purmorphamine and FGF/PDGF were removed from the culture media. Compound 1 (0.02 and 0.2 μM) was incubated with human iPSC-derived OPCs in the differentiation media for 40 days.

circulating cholesterol [6] = experiment: Population PK/PD model (Monolix) of circulating cholesterol vs Compound 1 plasma concentration; set-up: species or system human
Source text: Based on these observations, a population PK/PD model was developed using Monolix to describe circulating cholesterol concentration as a function of plasma concentration of Compound 1 and exposure. The model was developed from cholesterol data from the study described above (Study 1) as well as two additional clinical studies (Study 2 and Study 3) in healthy volunteers. In Study 2, thirty healthy volunteers received a single oral dose of Compound 1 with 6 individual participants per cohort receiving 3 mg (Cohort 1), 10 mg (Cohort 2), 30 mg (Cohort 3), 60 mg (Cohort 4), 100 mg (Cohort 5). There were also 9 participants who received placebo in the study. In Study 3, 8 healthy adult volunteers received a single dose of 30 mg of Compound 1.

neutrophils = experiment: Neutrophil and monocyte counts in the healthy volunteer study; type: in vivo, human
Experimental: as §1, §2

[7] = test system: rat A2B5+ oligodendrocytes / DRG neuron co-culture; experiment: OPC/DRG co-culture myelination assay (MBP Western blot); type: cell-based; conditions: 13 days co-culture
Experimental: Embryonic dorsal root ganglia (DRG) dissected from embryonic day 14 (E14) to day 17 (E17) Sprague Dawley rats, were plated on poly-L-lysine (100 μg/ml)-coated cover slips for 2 weeks and grown in Neurobasal medium supplemented with B27 (Life technologies). To remove proliferating glial cells, cultures were pulsed twice with fluorodeoxyuridine (20 μM) from days 2-6 and from days 8-10. Then rat A2B5+ oligodendrocytes were added to DRG neuron drop cultures in the presence or absence of compounds at 37° C. with 5% CO2 for 13 days. The culture media (Neurobasal medium supplemented with B27 and 100 ng/ml nerve growth factor (NGF)) with fresh compounds were changed twice per week. Myelination is determined by Western blotting to quantify MBP level.

[8] = Plasma concentration of Compound 1 in healthy volunteers; type: in vivo, human
Experimental: as §1
Based on these observations, a population PK/PD model was developed using Monolix to describe circulating cholesterol concentration as a function of plasma concentration of Compound 1 and exposure. The model was developed from cholesterol data from the study described above (Study 1) as well as two additional clinical studies (Study 2 and Study 3) in healthy volunteers. […]

[9] = target: T1, sphingosine-1-phosphate receptor 4 (S1P4) (Homo sapiens, UniProt O95977); conditions: cited from earlier work
T1 sequence (O95977 1-384): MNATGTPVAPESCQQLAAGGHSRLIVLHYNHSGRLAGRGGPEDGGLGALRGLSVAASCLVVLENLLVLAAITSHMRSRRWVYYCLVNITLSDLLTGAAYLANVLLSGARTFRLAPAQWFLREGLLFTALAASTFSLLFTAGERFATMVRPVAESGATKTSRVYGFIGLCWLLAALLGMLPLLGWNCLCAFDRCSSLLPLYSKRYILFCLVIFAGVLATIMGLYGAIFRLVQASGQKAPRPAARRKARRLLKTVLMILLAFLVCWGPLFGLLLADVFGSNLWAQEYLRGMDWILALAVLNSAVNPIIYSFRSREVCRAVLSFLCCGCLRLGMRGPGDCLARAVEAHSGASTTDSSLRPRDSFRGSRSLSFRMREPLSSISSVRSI

other participants with decline in absolute neutrophil count (neutrophils; Cohort 4, 30 mg): 6 participants
other participants with decline in absolute neutrophil count (neutrophils; Cohort 5, 60 mg loading dose followed by 10 mg maintenance dose): 6 participants
other participants with decline in absolute neutrophil count (neutrophils; Cohort 6): 5 participants
other participants with decline in absolute neutrophil count (neutrophils; Cohort 7): 5 participants
other participants with decline in absolute neutrophil count (neutrophils; all doses ≥30 mg): 22 participants
absolute neutrophil count from baseline (neutrophils; doses ≥30 mg): dose-dependent decline
extent of neutrophil count decline (neutrophils; low doses <30 mg, Cohorts 1, 2, and 3): indistinguishable from placebo control
participants who developed CTCAE grade 3 neutropenia (neutrophils; whole study of Example 1): Two of 56
steady-state concentration of Compound 1 ([8]; daily dose of 60 mg): about 3 μg/mL
time of increase to steady-state concentrations of Compound 1 in plasma ([8]; daily dosing): approximately 15 days
Compound: CC[C@H]1CC[C@@H](Oc2ccc3cc(CN4CCC(C(=O)O)CC4)ccc3c2)CC1 [Compound 1, 1-((6-(((1s,4s)-4-ethylcyclohexyl)oxy)naphthalen-2-yl)methyl)piperidine-4-carboxylic acid]
dose for 90% of maximum observed biologic effect (ED90) [1]: 3 mg/kg
minimal efficacious dose (remyelinated axon fibers in the lesions) [1]: 0.3 mg/kg
remyelination (myelinated axons, toluidine blue) [1]: enhanced remyelination in a dose dependent manner
7-dehydrocholesterol (7-DHC) level (circulating cholesterol [2]; healthy human volunteers): causes accumulation of 7-dehydrocholesterol
average decrease in total cholesterol (circulating cholesterol [2]; healthy volunteers, 60 mg dose, Study 1): approximately 20%
total circulating cholesterol (circulating cholesterol [2]; healthy volunteers, QD over 28 days, FIG. 1 (10, 30, 60 mg per day vs placebo)): gradual, time- and dose-dependent reduction
remyelination (myelinated axons in corpus callosum lesions) [3]: dose dependent enhancement of remyelination
amount of MBP+ myelinated axon clusters relative to control [4]: increased
7-DHC vs vehicle control (rat OPCs; 24 hours): 8.3 folds
cholesterol vs vehicle control (rat OPCs; 24 hours): 0.64 folds
desmosterol vs vehicle control (rat OPCs; 24 hours): 0.44 folds
7-DHC vs vehicle control (rat OPCs; 72 hours): 12.86 folds
cholesterol vs vehicle control (rat OPCs; 72 hours): insignificant change
desmosterol vs vehicle control (rat OPCs; 72 hours): 0.4 folds
remyelination [5]: enhanced remyelination
number of MBP+ cells relative to control (human iPSC-derived OPCs): increased
concentration of circulating cholesterol in the model (circulating cholesterol [6]; by daily dose): reduced at all daily doses higher than 10 mg
predicted decrease in circulating cholesterol (circulating cholesterol [6]; model prediction, 60 mg QD): approximately 35%
EC50 for reduction in circulating cholesterol concentration (circulating cholesterol [6]; population PK/PD model, plasma concentration of Compound 1): about 3 μg/mL
absolute monocyte counts (neutrophils; 60 mg QD, except the patient who discontinued): remained throughout the study in the normal range
participants with neutropenia AE leading to discontinuation (neutrophils; Cohort 6, 60 mg): 1 participant
participants with neutropenia AE leading to discontinuation (neutrophils; Cohort 7, 90 mg loading dose followed by 30 mg maintenance dose): 1 participant
myelination (MBP level by Western blotting) [7]: promoted myelination in OPC/DRG co-culture assay in a dose-dependent manner
S1P4 activity [9]: known inhibitor

Reference: patent publication US20230390270A1, “METHODS FOR TREATING REMITTING MULTIPLE SCLEROSIS” (BIOGEN MA INC., priority 2020, published 2023)
